# Measurements published in patent US12410171B2, “Tropomyosin receptor kinase (TRK) degradation compounds and methods of use” (Cullgen (Shanghai), Inc., priority 2020, dated 2025).
# System: KM12 cells
# Test: KM12 cell viability (CellTiter-Glo)
# Assay type: cell-based
# Conditions: Homo sapiens, 72 h; KM12 cell viability, 11-point 3-fold serial dilution, 3 days, CellTiter-Glo; read-out: IC50
# Method: KM12 or H358 cells were treated with 1000 nM CPD-053 following an 8-point 3-fold serial dilution for 3 days.
# KM12 cells seeded in 96-well plates were treated with heterobifunctional compounds following a 11-point 3-fold serial dilution for 3 days.
# KM12, H358, HEL, SU-DHL-1 and other cells were cultured at 37° C. with 5% CO2 in RPMI 1640 Medium supplemented with 10% fetal bovine serum. Cells were authenticated using the short tandem repeat (STR) assays. Mycoplasma test results were negative. Stable cell lines were established by lentivirus transduction, selected and maintained in medium containing 1 μg/mL puromycin (Beyotime Biotechnology).
# Cells were seeded at a density of 5000 cells per well in 96-well assay plates and treated with test compounds following a 12-point 2-fold serial dilution or a 8-point 3-fold dilution, or 11-point 3-fold serial dilution. Three days later, cell viability was determined using the CellTiter-Glo assay kit (Promega) according to the manufacturer's instructions. The dose-response curves were determined and IC50 values were calculated using the GraphPad Prism software following a nonlinear regression (least squares fit) method.
row,Structure (SMILES),IC50 [nM]
1,"COc1ccc(COc2ccc(Cn3c(N)nc4cc(-c5cnn(CC(=O)NCCOCCOCCOCCOCCOCCC(=O)N[C@H](C(=O)N6C[C@H](O)C[C@H]6C(=O)NCc6ccc(-c7scnc7C)cc6)C(C)(C)C)c5)cnc43)cc2OC)cc1 [CPD-516, (2S,4R)-1-((S)-1-(4-(2-amino-3-(3-methoxy-4-((4-methoxybenzyl)oxy)benzyl)-3H-imidazo[4,5-b]pyridin-6-yl)-1H-pyrazol-1-yl)-23-(tert-butyl)-2,21-dioxo-6,9,12,15,18-pentaoxa-3,22-diazatetracosan-24-oyl)-4-hydroxy-N-(4-(4-methylthiazol-5-yl)benzyl)pyrrolidine-2-carboxamide]",473
2,"Cc1ncsc1-c1ccc(CNC(=O)[C@@H]2C[C@@H](O)CN2C(=O)[C@@H](NC(=O)CCCCCCC(=O)N2CCC(Nc3cccc(C(=O)Nc4cnn5ccc(N6CCC[C@@H]6c6cc(F)ccc6F)nc45)n3)CC2)C(C)(C)C)cc1 [CPD-463, N-(5-((R)-2-(2,5-difluorophenyl)pyrrolidin-1-yl)pyrazolo[1,5-a]pyrimidin-3-yl)-6-((1-(8-(((S)-1-((2S,4R)-4-hydroxy-2-((4-(4-methylthiazol-5-yl)benzyl)carbamoyl)pyrrolidin-1-yl)-3,3-dimethyl1-oxobutan-2-yl)amino)-8-oxooctanoyl)piperidin-4-yl)amino)picolinamide]",443
3,"COc1ccc(COc2ccc(Cn3c(N)nc4cc(-c5cnn(CC(=O)NCCCC(=O)N[C@H](C(=O)N6C[C@H](O)C[C@H]6C(=O)NCc6ccc(-c7scnc7C)cc6)C(C)(C)C)c5)cnc43)cc2OC)cc1 [CPD-508, (2S,4R)-1-((S)-2-(4-(2-(4-(2-amino-3-(3-methoxy-4-((4-methoxybenzyl)oxy)benzyl)-3H-imidazo[4,5-b]pyridin-6-yl)-1H-pyrazol-1-yl)acetamido)butanamido)-3,3-dimethylbutanoyl)-4-hydroxy-N-(4-(4-methylthiazol-5-yl)benzyl)pyrrolidine-2-carboxamide]",2100
4,"NC(=O)C1CCN(c2cc(CN3CCN(C(=O)CCOCCOCCOCCOCCNc4cccc5c4C(=O)N(C4CCC(=O)NC4=O)C5=O)CC3)ccc2NC(=O)c2coc(N3CCOCC3)n2)CC1 (stereo not shown) [CPD-488, N-(2-(4-carbamoylpiperidin-1-yl)-4-((4-(1-((2-(2,6-dioxopiperidin-3-yl)-1,3-dioxoisoindolin-4-yl)amino)-3,6,9,12-tetraoxapentadecan-15-oyl)piperazin-1-yl)methyl)phenyl)-2-morpholinooxazole-4-carboxamide]",147
5,"Cc1ncsc1-c1ccc(CNC(=O)[C@@H]2C[C@@H](O)CN2C(=O)[C@@H](NC(=O)CCOCCOCCOCCOCCC(=O)N2CCN(Cc3ccc(NC(=O)c4coc(N5CCOCC5)n4)c(N4CCC(C(N)=O)CC4)c3)CC2)C(C)(C)C)cc1 [CPD-497, N-(2-(4-carbamoylpiperidin-1-yl)-4-((4-((S)-18-((2S,4R)-4-hydroxy-2-((4-(4-methylthiazol-5-yl)benzyl)carbamooyl)pyrrolidine-1-carbonyl)-19,19-dimethyl-16-oxo-4,7,10,13-tetraoxa-17-azaicosanoyl)piperazin-1-yl)methyl)phenyl)-2-morpholinooxazole-4-carboxamide]",> 10000
6,"Cc1ncsc1-c1ccc(CNC(=O)[C@@H]2C[C@@H](O)CN2C(=O)[C@@H](NC(=O)CCCCC(=O)N2CCN(Cc3ccc(NC(=O)c4coc(N5CCOCC5)n4)c(N4CCC(C(N)=O)CC4)c3)CC2)C(C)(C)C)cc1 [CPD-491, N-(2-(4-carbamoylpiperidin-1-yl)-4-((4-(6-(((S)-1-((2S,4R)-4-hydroxy-2-((4-(4-methylthiazol-5-yl)benzyl)carbamoyl)pyrrolidin-1-yl)-3,3-dimethyl-1-oxobutan-2-yl)amino)-6-oxohexanoyl)piperazin-1-yl)methyl)phenyl)-2-morpholinooxazole-4-carboxamide]",3700
7,"COc1ccc(COc2ccc(Cn3c(N)nc4cc(-c5cnn(CC(=O)NCCCCCC(=O)N[C@H](C(=O)N6C[C@H](O)C[C@H]6C(=O)NCc6ccc(-c7scnc7C)cc6)C(C)(C)C)c5)cnc43)cc2OC)cc1 [CPD-509, (2S,4R)-1-((S)-2-(6-(2-(4-(2-amino-3-(3-methoxy-4-((4-methoxybenzyl)oxy)benzyl)-3H-imidazo[4,5-b]pyridin-6-yl)-1H-pyrazol-1-yl)acetamido)hexanamido)-3,3-dimethylbutanoyl)-4-hydroxy-N-(4-(4-methylthiazol-5-yl)benzyl)pyrrolidine-2-carboxamide]",53.1
8,"Cc1ncsc1-c1ccc(CNC(=O)[C@@H]2C[C@@H](O)CN2C(=O)[C@@H](NC(=O)CCCCC(=O)N2CCC(Nc3cccc(C(=O)Nc4cnn5ccc(N6CCC[C@@H]6c6cc(F)ccc6F)nc45)n3)CC2)C(C)(C)C)cc1 [CPD-462, N-(5-((R)-2-(2,5-difluorophenyl)pyrrolidin-1-yl)pyrrazolo[1,5-a]pyrimidin-3-yl)-6-((1-(6-(((S)-1-((2S,4R)-4-hydroxy-2-((4-(4-methylthiazol-5-yl)benzyl)carbamoyl)pyrrolidin-1-yl)-3,3-dimethyl-1-oxobutan-2-yl)amino)-6-oxohexanoyl)piperidin-4-yl)amino)picolinamide]",> 1000
9,"COc1ccc(COc2ccc(Cn3c(N)nc4cc(-c5cnn(CC(=O)NCCOCCOCCOCCNc6cccc7c6C(=O)N(C6CCC(=O)NC6=O)C7=O)c5)cnc43)cc2OC)cc1 (stereo not shown) [CPD-504, 2-(4-(2-amino-3-(3-methoxy-4-((4-methoxybenzyl)oxy)benzyl)-3H-imidazo[4,5-b]pyridin-6-yl)-1H-pyrazol-1-yl)-N-(2-(2-(2-(2-((2-(2,6-dioxopiperidin-3-yl)-1,3-dioxoisoindolin-4-yl)amino)ethoxy)ethoxy)ethoxy)ethyl)acetamide]",334

# Same assay, conditions: Homo sapiens, 72 h; KM12 cell viability, CellTiter-Glo, three days treatment; read-out: IC50
row,Structure (SMILES),IC50 [nM]
1,"O=C1CCC(N2Cc3cc(OCCN4CCN(c5cccc(-c6cnc7ccc(N8CCC[C@@H]8c8cccc(F)c8)nn67)n5)CC4)ccc3C2=O)C(=O)N1 (stereo partly drawn) [TR-200, 3-(5-(2-(4-(6-(6-((R)-2-(3-fluorophenyl)pyrrolidin-1-yl)imidazo[1,2-b]pyridazin-3-yl)pyridin-2-yl)piperazin-1-yl)ethoxy)-1-oxoisoindolin-2-yl)piperidine-2,6-dione]",101
2,"Cc1ncsc1-c1ccc(CNC(=O)[C@@H]2C[C@@H](O)CN2C(=O)[C@@H](NC(=O)COCCOCCOCCOCCOCC(=O)N2CCN(c3cccc(-c4cnc5ccc(N6CCCC6c6cccc(F)c6)nn45)n3)CC2)C(C)(C)C)cc1 (stereo partly drawn) [CPD-003, (25,4R)-1-((S)-2-(tert-butyl)-20-(4-(6-(6-((R)-2-(3-Fluorophenyl)pyrrolidin-1-yl)imidazo[1,2-b]pyridazin-3-yl)pyridin-2-yl)piperazin-1-yl)-4,20-dioxo-6,9,12,15,18-pentaoxa-3-azaicosanoyl)-4-hydroxy-N-(4-(4-methylthiazol-5-yl)benzyl)pyrrolidine-2-carboxamide]",> 1000
3,"Cc1ncsc1-c1ccc(CNC(=O)[C@@H]2C[C@@H](O)CN2C(=O)[C@@H](NC(=O)CCOCCOCCOCCOCCOCCC(=O)N2CCN(c3cccc(-c4cnc5ccc(N6CCCC6c6cccc(F)c6)nn45)n3)CC2)C(C)(C)C)cc1 (stereo partly drawn) [CPD-005, (25,4R)-1-((S)-2-(tert-butyl)-22˜ (4-(6-(6-((R)-2˜ (3-Fluorophenyl)pyrrolidin-1-yl)imidazo[1,2-b]pyridazin-3-yl)pyridin-2-yl)piperazin-1-yl)-4,22-dioxo-7,10,13,16,19-pentaoxa-3-azadocosanoyl)-4-hydroxy-N-(4-(4-methylthiazol-5-yl)benzyl)pyrrolidine-2-carboxamide]",> 1000
4,"Cn1c(=O)n(C2CCC(=O)NC2=O)c2cccc(OCCCN3CCN(c4ccc(C(=O)Nc5n[nH]c6ccc(Cc7cc(F)cc(F)c7)cc56)c(NC5CCOCC5)c4)CC3)c21 (stereo not shown) [TR-312, N-(5-(3,5-Difluorobenzyl)-1H-indazol-3-yl)-4-(4-(3-((1-(2,6-dioxopiperidin-3-yl)-3-methyl-2-oxo-2,3-dihydro-1H-benzo[d]imidazol-4-yl)oxy)propyl)piperazin-1-yl)-2-((tetrahydro-2/˜pyran-4-yl)amino)benzamide]",107
5,"O=C1CCC(N2C(=O)c3ccc(CN4CCN(c5ccc(C(=O)Nc6n[nH]c7ccc(Cc8cc(F)cc(F)c8)cc67)c(NC6CCOCC6)c5)CC4)cc3C2=O)C(=O)N1 (stereo not shown) [TR-274, N-(5-(3,5-Difluorobenzyl)-1H-indazol-3-yl)-4-(4-((2-(2,6-dioxopiperidin-3-yl)-1,3-dioxoisoindolin-5-yl)methyl)piperazin-1-yl)-2-((tetrahydro-2/-pyran-4-yl)amino)benzamide]",440
6,"O=C1CCC(N2Cc3ccc(OCCN4CCN(c5cccc(-c6cnc7ccc(N8CCC[C@@H]8c8cccc(F)c8)nn67)n5)CC4)cc3C2=O)C(=O)N1 (stereo partly drawn) [TR-201, 3-(6-(2-(4-(6-(6-((R)-2-(3-fluorophenyl)pyrrolidin-1-yl)imidazo[1,2-b]pyridazin-3-yl)pyridin-2-yl)piperazin-1-yl)ethoxy)-1-oxoisoindolin-2-yl)piperidine-2,6-dione]",> 500
7,"O=C1CCC(n2c(=O)n(CCCN3CCN(c4cccc(-c5cnc6ccc(N7CCC[C@@H]7c7cccc(F)c7)cn56)n4)CC3)c3ccccc32)C(=O)N1 (stereo partly drawn) [TR-243, 3-(3-(3-(4-(6-(6-((R)-2-(3-Fluorophenyl)pyrrolidin-1-yl)imidazo[1,2-a]pyridin-3-yl)pyridin-2-yl)piperazin-1-yl)propyl)-2-oxo-2,3-dihydro-1H-benzo[d]imidazol-1-yl)piperidine-2,6-dione]",> 500
